Test results: patent publication US5208340A, “Process for producing an aryl-imido-peralkanoic acid by oxidizing the corresponding aryl-imido-alkanoic acid with hydrogen peroxide” (Ausimont S.p.A., priority 1990, dated 1993)

Assay: Solubility of PAC and PAP in halogenated solvents (Table 1)
Type: physicochemical
Conditions: for solubility in the particular halogenated solvents (in words): methylene chloride and trichloromethane
Description: The novel mechanism results in high conversion and yield under low temperature, low viscosity and internal system temperature control conditions. In addition, a very efficient product recovery can be obtained from the inorganic phase. Of course, the pressure should be such as to keep the system in the liquid phase.

Row | Solubility (Dichloromethane, at 14° C.) | Solubility (Dichloromethane, at 25° C.) | Solubility (Trichloromethane, at 14° C.) | Solubility (Trichloromethane, at 25° C.) | solubility in the particular halogenated solvents (in words) | Solubility (Dichloromethane, at 25° C., (**) Estimated value) | SMILES
1 | 51.1 g per 100 cm^3 of solvent | 67.3 g per 100 cm^3 of solvent | 52.3 g per 100 cm^3 of solvent | 67.9 g per 100 cm^3 of solvent | even more soluble |  | O=C(O)CCCCCN1C(=O)c2ccccc2C1=O [PAC, ε-phthalimidohexanoic acid]
2 | 26.3 g per 100 cm^3 of solvent |  | 26.1 g per 100 cm^3 of solvent | 34.9 g per 100 cm^3 of solvent | soluble | 35.2 g per 100 cm^3 of solvent | O=C(CCCCCN1C(=O)c2ccccc2C1=O)OO [PAP, ε-phthalimidoperhexanoic acid]
